{
  "source": "patent US8138196B2",
  "about": "“Antifungal wallboards and building materials and methods for the production thereof” (Syngenta Crop Protection, Inc., priority 2005, dated 2012)",
  "type_in_all_cases": "cell-based",
  "key": {"[1]": {"system": "Coniophora puteana", "assay": "radial mycelial growth on fungicide amended agar", "conditions": "estimated from graph of % activity (radial mycelial growth relative to agar without fungicide) against concentration", "method": "Stem cultures of Coniophora puteana were produced by propagating the fungus on a growth medium comprising yeast extract (10 g), glycerol (20 ml), magnesium sulphate (0.5 g), sodium nitrate (6.0 g), potassium chloride (0.5 g), potassium dihydrogen orthophosphate (1.5 g), agar (20 g) in distilled water (980 ml).\nFungicides were added at levels of 5000, 100, 10, 1, 0.1 and 0.01 mg fungicide/litre of growth medium (described above) to give […] different growth medium compositions for each fungicide. Mycelial plugs were taken from the stem cultures and transferred upside down onto petri dishes containing the fungicide amended agar.\nThe radial mycelial growth of the fungus was measured individually on all test petri dishes. The results are expressed as % activity relative to the radial growth on agar without fungicide.\nFor each fungicide, a graph was drawn of percentage activity against concentration of fungicide in the growth medium. From this graph, the concentrations of fungicide required to achieve 80% activity was estimated. These figures are given in the results table."}, "[2]": {"system": "Aspergillus niger (DSM 63263)", "assay": "Example 4 liquid culture assay on 24 and 48 well plates, 3 way mixtures", "conditions": "A. niger, AZO 0.05 mg ai/l", "excerpt": "(§1) For test 006-2005: Alternaria tenuissima (DSM 63360), Penicillium chrysogenum (DSM 895), Cladosporium cladosporoides (DSM62121), Aspergillus niger (DSM 63263), Aspergillus versicolor (DSM 1943) and Aureobasidium pullulans (ATCC 15233) were separately cultivated on PDA media to […] sporulation. Spore suspensions were produced for each fungus. Spore concentrations of approx. 100,000 spores/ml were used.\nFor test 015-2006: Alternaria tenuissima (DSM 63360), Penicillium pinophilum (CBS342.61), Gliocladium virens (DSM1963), Aspergillus niger (DSM 63263), Stachybotrys chartarum (DSM 2144) and Aureobasidium pullulans (ATCC 15233) were separately cultivated on PDA media to […] sporulation. Spore suspensions were produced for each fungus. Spore concentrations of approx. 100,000 spores/ml were used.\n(§2) Test method used: liquid culture assay on 24 and 48 well plates respectively.\n(§3) For testing of the 3 way mixtures each of the formulated fungicide (100 ul) was filled into the 24 and 48 well plates respectively. Afterwards 700 ul of 0.3% AE media was added to the plate. The spore suspension of the specific fungi was added to this media in advance containing approx. 100,000 spores/ml. For testing the solo compounds the equivalent of distilled water was added instead of the formulated fungicide volume of the mixing partners. The plates were then sealed and incubated at 24° C.\n(§4) Dependent on the growth properties of each organisms, the evaluation was done after 3 to 6 days, when the surface of the check well was covered with mycelium. The evaluation was performed by assessing the growth of the fungi related to the check growth. The results are expressed as % activity relative to the check (values of 0-100% growth). Afterwards the results were converted in % growth inhibition.\n(§5) For the mixtures of different fungicides the synergism was calculated based on the Colby equation, which is described above."}, "[3]": {"system": "Aspergillus versicolor (DSM 1943)", "assay": "Example 4 liquid culture assay on 24 and 48 well plates, 3 way mixtures", "conditions": "test 006-2005, A. versicolor", "excerpt": "as §1, §2, §3, §4, §5"}},
  "data": [
    {"smiles": "CO/C=C(/C(=O)OC)c1ccccc1Oc1cc(Oc2ccccc2C#N)ncn1", "note": "[Azoxystrobin]", "values": [
      {"measurement": "Concentration required for 80% Activity", "setting": "[1]", "value": 0.38, "unit": "mg/L"},
      {"measurement": "inh % (AZO alone)", "setting": "[2]; test 006-2005", "value": 10, "unit": "%"},
      {"measurement": "inh % (AZO alone)", "setting": "[2]; test 015-2005", "value": 0, "unit": "%"},
      {"measurement": "inh % (AZO alone)", "setting": "[3]; AZO 0.05 mg ai/l", "value": 10, "unit": "%"},
      {"measurement": "inh % (AZO alone)", "setting": "[3]; AZO 0.2 mg ai/l", "value": 30, "unit": "%"},
      {"measurement": "inh % (AZO alone)", "setting": "[3]; AZO 0.8 mg ai/l", "value": 30, "unit": "%"},
      {"measurement": "inh % (AZO alone)", "setting": "[3]; AZO 1.6 mg ai/l", "value": 30, "unit": "%"},
      {"measurement": "inh % (AZO alone)", "setting": "[3]; AZO 3.12 mg ai/l", "value": 30, "unit": "%"},
      {"measurement": "inh % (AZO alone)", "setting": "[3]; AZO 12.5 mg ai/l", "value": 30, "unit": "%"},
      {"measurement": "inh % (AZO alone)", "setting": "[3]; AZO 50 mg ai/l", "value": 30, "unit": "%"},
      {"measurement": "inh % (AZO alone)", "setting": "[3]; AZO 100 mg ai/l", "value": 30, "unit": "%"}
    ]}
  ]
}
